Test results taken from a melting point compilation (Tetko et al.; mined from patent text by program, amines drawn as free bases though some values may be those of a salt).

SMILES | melting point
CCN(CC)C(=O)c1c(C)cccc1Cl | 48 to 49 °C
COc1cccc(NC(=O)c2ccccc2C(c2ccc(O)cc2)c2ccc(O)cc2)c1 | 106 to 107 °C
CCCCNC(=O)c1ccccc1CN1C(=O)C2(COc3cc4c(cc32)CCO4)c2ccccc21 (stereo unspecified) | 176 to 178 °C
CC(=O)N1CCC(CNc2nc3ccccc3s2)CC1 | 138 °C
COc1cc(Br)ccc1-c1ccc(Br)cc1[N+](=O)[O-] | 127 to 129 °C
OC1(c2ccccc2)CCN(CCC2Cc3ccccc3O2)CC1 (stereo unspecified) | 107 °C
CC(C)(C)OC(=O)Nc1ccc(-c2ccccc2)cc1NC(=O)CC(=O)c1sccc1Cl | 165 °C
CC1CC2C3CCC4=CC(=O)C=CC4(C)C3C(O)CC2(C)C1C(=O)CI (stereo unspecified) | 153 °C
CON1CCC(=Cc2cc(C(C)(C)C)c(O)c(C(C)(C)C)c2)C1=O | 169 °C
CCCc1nc2ccnn2c(O)c1Cc1ccc(-c2ccccc2C(N)=O)cc1 | 264 °C
Cc1csc2nc(S(=O)(=O)Nc3ccccc3Cl)nn12 | 172 to 174 °C
CN1CCC(c2c[nH]c3ccc(/C=C/C(N)=O)cc23)CC1 | 82 to 83.5 °C
COC(=N)Nc1ccc(C(F)(F)F)cc1 | 121 to 123 °C
Cc1ccc(-c2ccc(S(C)(=O)=O)cc2)n1-c1ccc(-c2ccoc2)c(Cl)c1 | 165 to 168 °C
CCN=C(N)N(CC)N=C(C=Cc1ccc(OC(F)F)cc1)C=Cc1ccc(OC(F)F)cc1 | 97 to 99 °C
CCSC1(c2cc(F)cc(OCc3ccc4c(ccc(=O)n4C)c3)c2)CCOCC1 | 68 to 72 °C
COC(=O)c1cc(SCc2ccsc2)c(Oc2ccccc2)c(S(N)(=O)=O)c1 | 148 to 149 °C
CCc1cc2c(Sc3ccccn3)ncnc2s1 | 76.5 to 79 °C
O=C(O)C=C1SC(=NC2CCCCC2)N(C2CCCCC2)C1=O | 189 to 190 °C
Cc1c(C)c2c(c(C)c1N)[C@H](c1ccc(C(C)C)cc1)[C@H](C)O2 (relative stereo) | 91 to 92 °C
O=C(O)c1[nH]c(=O)[nH]c(=O)c1[N+](=O)[O-] | > 300 °C
O=[N+]([O-])c1ccc(N2CCN(c3ccncc3)CC2)cc1 | 213 to 216 °C
COC1(c2cccc(OCc3ccc(-n4ccnc4C)cc3F)c2)CCOCC1 | 121 to 122 °C
Cc1ccc(-c2[nH]c(C(F)(F)F)nc2-c2ccc(S(C)(=O)=O)cc2)cc1 | 234 to 238 °C
Cc1cc(F)ccc1-c1nc(NCCO)nc2c1ccc(=O)n2-c1ccccc1F | 120 to 124 °C
CC(C)(C)NC1=NS(=O)(=O)c2sc(Cl)cc2N1 | 368 to 372 °C

SMILES | melting point
CN(C)c1cccc(C(=O)N2CCN(CCc3ccc(Cl)cc3)CC2)c1 | 110 to 112 °C
COc1cnc2c(C)ccc(-c3cccc(C(F)(F)F)c3)c2n1 | 119 to 121 °C
O=C1CSc2ccc3ccccc3c2N1 | 195 to 196 °C
Clc1ncn(CCOc2ccc(Oc3ccccc3)cc2)c1Cl | 89 to 91 °C
Oc1ccc(C(O)CN2CCC(O)(c3cccc(F)c3)CC2)cc1 (stereo unspecified) | 154 °C
C#CCOc1cc(Cl)nc(Nc2ccccc2)n1 | 92 to 93 °C
COc1ccc(C(=O)NC(=S)NCc2ccccc2C(N)=O)cc1 | 140 to 143 °C
CC1(C)C=Cc2c(ccc3c2OCC2(O)c4ccc(O)cc4OC32)O1 (single isomer, unassigned; (-)) | 95 to 101 °C
CCOC(=O)c1ccc(/C=C(\C)c2ccc3c(c2)C(C)(C)CCC3(C)C)cc1 | 90 to 91 °C
O=c1ccc(-c2ccc(C(F)(F)F)cc2)n[nH]1 | 191 to 193 °C
CC(C)Nc1nc(N2CCOCC2)nc2cscc12 | 202 °C
O=C(O)c1ccsc1Cl | 166 to 167 °C
Cc1cc(C(=S)NCc2cccc([N+](=O)[O-])c2)c(OCC(=O)O)cc1F | 137 to 139 °C
Cn1nc(-c2cccc(Cl)c2)cc1C(=O)O | 164 to 167 °C
CN(C)CCCOc1ccc(C(=O)NN)cc1F | 109 to 111 °C
N#Cc1cnc2c(oc3ccccc32)c1Nc1cccc(Br)c1 | 242 to 245 °C
C=CCC1(C)Cc2cc(O)c(Cl)c(Cl)c2C1=O (stereo unspecified) | 180 °C
CCOC(=O)CC(C(=O)c1ccc(Cl)cc1)C(=O)c1ccc(Cl)cc1 | 108 °C
COc1cc2c(cc1OC)[C@@H]1CN(C)CC[C@@H]1N=C2c1ccc([N+](=O)[O-])cc1 (relative stereo) | 194 to 195 °C
CCc1nc(C)c(CC(=O)N(CC)CC)c(=O)n1Cc1ccc(-c2ccccc2-c2nnn[nH]2)cc1 | 125 to 131 °C
CCc1cc(Cl)c(-n2ncc(C#N)c2N)c(Cl)c1 | 189 to 190 °C
O=[N+]([O-])c1cccnc1NCC(O)CO (stereo unspecified) | 95.5 to 98 °C
Clc1ccc(Nc2nc(-c3cccc(Cl)n3)nc3ccccc23)cc1 | 212 to 213 °C
CCC(=O)CCC(=O)c1ccc(F)cc1 | 56 to 57 °C
Fc1cccc(Cl)c1-c1c(Cl)cc(Cl)nc1Cl | 210 °C
COc1ccc2c(c1)c(C1CCN(CCOc3ccccc3C(=O)O)CC1)cn2Cc1ccoc1 | 153 to 154 °C

SMILES | melting point
C[C@H](N)Cn1ncc2ccc3oc(C(=O)NCC4(O)CC4)cc3c21 | 77 to 79 °C
OCC1OC(n2cnc3c(NC(c4ccccc4)c4ccccc4)ncnc32)C(O)C1O (stereo unspecified) | 89 to 96 °C
CCC(C)(NC(=O)c1cc(Cl)c(N)c(C=NOC)c1)C(=O)CCl (stereo unspecified) | 140 to 141 °C
O=C1CCN(c2ccc(C=C3SC(=O)NC3=O)cc2Br)CC1 | > 210 °C
CC(C)[C@H](NC(=O)OCc1csc(N(C)C)n1)C(=O)N[C@@H](Cc1ccccc1)[C@@H](O)C[C@H](Cc1ccccc1)NC(=O)OCc1cncs1 | 157 to 159 °C
CCC1CCn2c(nc(-c3ccncn3)cc2=O)N1CC(=O)c1ccccc1 (stereo unspecified) | 187 to 189 °C
CCCCCOc1ccc(-c2ccc(CC(=O)c3ccccc3)cc2)cc1 | 86 °C
CC(=O)c1cc2cc(Br)ccc2s1 | 120 to 121 °C
CN1CC(c2cccc(Br)c2)=C(c2ccc(S(C)(=O)=O)cc2)C1=O | 138 to 139 °C
Oc1cccc(CCCn2ccnn2)c1 | 74 to 75 °C
CN(C)Cc1cccc(NCCCNc2nc(N)nn2C)c1 | 101 to 102 °C
CCOC(=O)COc1ccc(C2=NNC(=O)CC2)cc1 | 127 to 129 °C
CN1CC(c2ccc(S(C)(=O)=O)cc2)=C(c2cccc(Cl)c2)C1=O | 168 to 170 °C
c1ccc2[nH]c(SCc3cn4ccccc4n3)nc2c1 | 220 to 222 °C
CCC(C#N)(COc1ccc(Cl)cc1)c1cccnc1 (stereo unspecified) | 82.1 °C
Cc1cc(N)nc(CCc2nc3cc(-c4ccc(C#N)cc4)cnc3[nH]2)c1 | 218 °C
CCN(c1cccc(OC)c1)c1nc(=O)c2cccnc2s1 | 136 °C
N#Cc1cnc2cc(-c3cc(CN4CCOCC4)c(CN4CCOCC4)s3)ccc2c1Nc1ccc(Cl)cc1Cl | 118 to 125 °C
O=C(C=Cc1ccccc1)NNC(=O)c1ccc(O)cc1 | 263 to 264 °C
Cc1c(-c2cccnc2)n(CCCCCC(=O)O)c2ccc(Cl)cc12 | 137 to 141 °C
CCOC(=O)C=Cc1cc(N2C(=O)C3C4CC4CN3C2=O)c(F)cc1Cl (stereo unspecified) | 123 to 124 °C
Cc1cc(C(=O)N[C@@H](CC(C)C)C(=O)N[C@@H](C(C)C)[C@@H](O)c2c(-c3ccccc3)c2=O)n(C)n1 | 115 to 118 °C
O=C(O)c1ccc(Cn2cc(C3c4ccc(C(F)(F)F)cc4C=Cc4cc(C(F)(F)F)ccc43)c(=O)[nH]c2=O)o1 | 203 to 206 °C
CCn1c(=O)c(C(=O)NCCO)c(NCCO)c2cnc(-c3ccccc3)nc21 | 250 to 253 °C
Cc1cn(C2CCN(c3c(F)cc4c(=O)c(C(=O)O)cn(C5CC5)c4c3F)C2)nn1 (stereo unspecified) | 219 to 220 °C
CCOC(=O)c1cnc2c(NC(=O)c3c(Cl)cccc3Cl)cccc2c1CBr | 199 °C

SMILES | melting point
CC(Sc1nc(N)cc(Cl)n1)c1nccc2ccccc12 (stereo unspecified) | 179 to 180 °C
CCOC(=O)Nc1cccc2c1CN(C)CC2c1ccc(Cl)cc1 (stereo unspecified) | 155 °C
FC(F)(F)C(c1ccc(Cl)cc1Cl)c1ccc(Cl)cc1Cl | 84 to 86 °C
COc1ccc(C(=C/C=C/C(=O)NCCCCc2cccnc2)c2ccc(OC)cc2)cc1 | 76 to 77 °C
CCCOC(=O)c1cn(CC)c2nc(N3CCNCC3)ncc2c1=O | 152 °C
CC(=O)Nc1ccc(Cc2cc(C)c(C(=O)c3ccc(Cl)cc3)n2C)nc1 | 194 to 195 °C
CCc1ccc(SCCC(=O)O)cc1 | 59 to 60 °C
Cc1nccn1CCC(=O)NC(C)c1ccc(Cl)cc1 (stereo unspecified) | 135 to 137 °C
O=CNc1nc(C(=NOC2CCCCC2)C(=O)O)cs1 | > 230 °C
CCc1ccc(Cc2c(OC)cccc2OC)cc1 | 62.5 to 66.5 °C
Fc1cc(Br)ccc1OCc1ccccc1 | 64.4 to 66.3 °C
O=c1c2cccnc2c(-c2ccc(Cl)cc2)c2n1CCN2 | 260 to 262 °C
Cc1cnc(-c2ccc(CBr)cc2)nc1 | 129 to 131 °C
O=[N+]([O-])c1cccc(Nc2nccc(-c3ccccn3)n2)c1 | 213 to 219 °C
CCCCCCCCCCCCC(=O)c1noc(CCCCCCCCCCCC)c1[N+](=O)[O-] | 60 to 62 °C
O=C=Nc1ccc2c(c1)C(=O)OC2=O | 80 to 82 °C
COc1ccc(C(NCCCc2ccccc2)c2cccc(Nc3c(N)c(=O)c3=O)c2)cc1 (stereo unspecified) | 178 to 180 °C
CCOC(=O)c1c(CCl)nc2sc3c(c2c1-c1ccc(OC)c(OC)c1)CN(C(=O)OCc1ccccc1)CC3 | 125 to 126 °C
COCCOC(=O)C1=C(C)NC(C)=C(c2nnco2)C1c1cccc(Cl)c1Cl (stereo unspecified) | 190 to 192 °C
Cc1oc(-c2ccccc2)nc1COc1ccc(CCCC2OC(=O)NC2=O)cc1F (stereo unspecified) | 180 to 181 °C
O=[N+]([O-])c1c(Cl)cc(-c2n[nH]cc2Cl)cc1Cl | 177 °C
O=S(=O)(O)c1cncc(Br)c1 | > 300 °C
c1ccc2c3c([nH]c2c1)CCS3 | 152 to 155 °C
